Values after ≈ are worked out from the molar mass of the structure shown.
Experiments:
[1] = physchem; details: solubility of paracetamol
Procedure: The solubility of paracetamol in various solvents, such as glycofurol, PEG, ethanol, and propylene glycol were determined by us. […] The challenge lies in tailoring the appropriate solvent system to provide injectables containing paracetamol in 166 mg/ml to 250 mg/ml so that the therapeutic dose of paracetamol (500 mg) can be delivered in 2 to 3 ml without compromising in viscosity of these injectables.

[2] = Viscosity of paracetamol injectable solutions; type: physicochemical; details: solution in glycofurol at concentration of 205 mg/ml
Procedure: The solitary prior art in which the solution of paracetamol ranging from 60 mg/ml (6% w/v) to 150 mg/ml (15% w/v) have been prepared in glycofurol:ethanol:water (about 44:10:46 or about 4:1:4) and glycofurol: water (48:52 or about 1:1). […] 5 CPS and 14.8 CPS respectively. It is to be noted that the concentrations of the solutions reported in the said prior art is between 60 mg/ml to 150 mg/ml.

- solubility ([1]; organic solvent or mixture): ~205 mg/mL (≈ 1360 mM)
- solubility ([1]; water): ~14 mg/mL (≈ 92.6 mM)
- viscosity of the paracetamol solution [2]: about 57 CPS
Structure (SMILES): CC(=O)Nc1ccc(O)cc1 [paracetamol, p-acetylaminophenol]
